US9138465B2, “Pharmaceutical composition for treating lysosomal storage disease” (OSAKA UNIVERSITY, priority 2011, dated 2015)

How the values were obtained:
Assay type in all cases: cell-based
normal skin fibroblast = test: Enzyme activities in culture supernatants of normal cell + various reagents; conditions: for GALC enzyme activity in culture supernatant / total β-Hex enzyme activity in culture supernatant / α-Fuc enzyme activity in culture supernatant / α-Gal enzyme activity in culture supernatant / α-Gluc enzyme activity in culture supernatant / α-Iduro enzyme activity in culture supernatant / α-Man enzyme activity in culture supernatant / β-Gal enzyme activity in culture supernatant / β-Gluc enzyme activity in culture supernatant / β-Glucuro enzyme activity in culture supernatant / β-Hex A enzyme activity in culture supernatant: NH4Cl 20 mM, CQ 20 uM, Bafilo 20 nM; for excretion of group of lysosomal enzymes compared with no reagent added: Tables 1 and 2
Protocol: In a culture dish with a diameter of 10 cm, a normal skin fibroblast was cultured in a DMEM medium containing 10% FBS (fetal bovine serum) and a recommended amount of an antibiotic and/or an antibacterial agent [Gibco (registered trade name) Antibiotic-Antimycotic, Life Technologies] (hereinafter, referred to as “a standard culture medium”) until the cell became confluent. To the cultured normal skin fibroblast, ammonium chloride was added in such an amount that the concentration of ammonium chloride became 20 mM in the culture medium. Then, the cell was cultured. Seven days after, a culture supernatant was collected, and filtered with a 0.2 μm sterilizing filter to remove large debris and living cells. After the filtration, the activities of lysosomal enzymes contained in the supernatant were measured by a method as described later.
To confirm that the lysosomal enzyme group thus obtained contained lysosomal enzymes, the culture supernatant obtained after addition of ammonium chloride and culture was subjected to measurement of the activities of lysosomal enzymes. As controls, a culture supernatant of a normal skin fibroblast that was cultured without addition of ammonium chloride, and a culture supernatant of an ML-II patient-derived skin fibroblast (hereinafter, referred to as “an ML-II cell”) that was cultured without addition of ammonium chloride were used to measure the activities of lysosomal enzymes in the culture supernatant.
(§1) The activities of lysosomal enzymes were measured by a standard method using an artificial 4-methylumbelliferyl substrate. Briefly, a sample was incubated with the artificial substrate at 37° C. for 1 hour in an acidic phosphate or citrate buffer, and fluorescence was measured on a microplate reader at an excitation wavelength of 365 nm and an emission wavelength of 450 nm. For galactocerebrosidase, 6-hexadecanoylamino-4-methylumbelliferyl β-D-galactopyranoside (Slater and Frith Ltd.) was used as a substrate, and fluorescence was measured at an excitation wavelength of 385 nm and an emission wavelength of 450 nm. The enzyme activities were calculated as nmol/h/μL.
In a culture dish with a diameter of 10 cm, a normal skin fibroblast was cultured in a standard culture medium until the cell became confluent. […] Then, the cell was cultured. Five days after and 7 days after, a culture supernatant was collected, and filtered with a 0.2 μm sterilizing filter to remove large debris and living cells. After the filtration, the activities of lysosomal enzymes contained in the supernatant were measured by the same method as described in Example 1. As a control, a culture supernatant of a normal skin fibroblast that was cultured in a standard culture medium with no addition of any reagents was used to measure the activities of lysosomal enzymes in the culture supernatant.
In Tables 1 and 2, β-Gal means β-galactosidase, total β-Hex means total β-hexosaminidase, β-Hex A means β-hexosaminidase A, β-Gluc means β-glucosidase, α-Man means α-mannosidase, α-Fuc means α-fucosidase, α-Gluc means α-glucosidase, α-Gal means α-galactosidase, β-Glucuro means β-glucuronidase, α-L-Iduro means α-L-iduronidase, and GALC means galactocerebrosidase. SCM means a standard culture medium with no addition of any reagents. […] Bafilo means bafilomycin A1. The enzyme activity is expressed as nmol/h/μL.

COS-1 cell = test: Enzyme activities in culture supernatant of COS-1 cell + NH4Cl
Protocol: as §1
In a culture dish with a diameter of 10 cm, a COS-1 cell was cultured in a standard culture medium until the cell became confluent. To the cultured COS-1 cell, ammonium chloride was added in such an amount that the concentration became 20 mM in the culture medium. Then, the cell was cultured. Three days after, a culture supernatant was collected, and filtered with a 0.2 μm sterilizing filter to remove large debris and living cells. After the filtration, the activities of lysosomal enzymes contained in the supernatant were measured by the same method as described in Example 1. As a control, a culture supernatant of a COS-1 cell that was cultured in a standard culture medium with no addition of ammonium chloride was used to measure the activities of lysosomal enzymes in the culture supernatant.
In Table 3, β-Gal means β-galactosidase, total β-Hex means total β-hexosaminidase, β-Hex A means β-hexosaminidase A, β-Gluc means β-glucosidase, α-Man means α-mannosidase, α-Fuc means α-fucosidase, α-Gluc means α-glucosidase, α-Gal means α-galactosidase, β-Glucuro means β-glucuronidase, α-L-Iduro means α-L-iduronidase, and GALC means galactocerebrosidase. NH4Cl(−) means a culture supernatant in the case of no addition of ammonium chloride. NH4Cl(+) means a culture supernatant in the case of addition of ammonium chloride. The enzyme activity is expressed as nmol/h/μL.

[1] = target: T1, mannose 6-phosphate receptor (Homo sapiens, UniProt P11717); test: Competitive inhibition test for mannose 6-phosphate; conditions: ML-II cell, FIG. 4
T1 construct: a mannose 6-phosphate receptor on the cell surface; endogenous in cells; host or cells: ML-II cell
T1 sequence (P11717 41-2491): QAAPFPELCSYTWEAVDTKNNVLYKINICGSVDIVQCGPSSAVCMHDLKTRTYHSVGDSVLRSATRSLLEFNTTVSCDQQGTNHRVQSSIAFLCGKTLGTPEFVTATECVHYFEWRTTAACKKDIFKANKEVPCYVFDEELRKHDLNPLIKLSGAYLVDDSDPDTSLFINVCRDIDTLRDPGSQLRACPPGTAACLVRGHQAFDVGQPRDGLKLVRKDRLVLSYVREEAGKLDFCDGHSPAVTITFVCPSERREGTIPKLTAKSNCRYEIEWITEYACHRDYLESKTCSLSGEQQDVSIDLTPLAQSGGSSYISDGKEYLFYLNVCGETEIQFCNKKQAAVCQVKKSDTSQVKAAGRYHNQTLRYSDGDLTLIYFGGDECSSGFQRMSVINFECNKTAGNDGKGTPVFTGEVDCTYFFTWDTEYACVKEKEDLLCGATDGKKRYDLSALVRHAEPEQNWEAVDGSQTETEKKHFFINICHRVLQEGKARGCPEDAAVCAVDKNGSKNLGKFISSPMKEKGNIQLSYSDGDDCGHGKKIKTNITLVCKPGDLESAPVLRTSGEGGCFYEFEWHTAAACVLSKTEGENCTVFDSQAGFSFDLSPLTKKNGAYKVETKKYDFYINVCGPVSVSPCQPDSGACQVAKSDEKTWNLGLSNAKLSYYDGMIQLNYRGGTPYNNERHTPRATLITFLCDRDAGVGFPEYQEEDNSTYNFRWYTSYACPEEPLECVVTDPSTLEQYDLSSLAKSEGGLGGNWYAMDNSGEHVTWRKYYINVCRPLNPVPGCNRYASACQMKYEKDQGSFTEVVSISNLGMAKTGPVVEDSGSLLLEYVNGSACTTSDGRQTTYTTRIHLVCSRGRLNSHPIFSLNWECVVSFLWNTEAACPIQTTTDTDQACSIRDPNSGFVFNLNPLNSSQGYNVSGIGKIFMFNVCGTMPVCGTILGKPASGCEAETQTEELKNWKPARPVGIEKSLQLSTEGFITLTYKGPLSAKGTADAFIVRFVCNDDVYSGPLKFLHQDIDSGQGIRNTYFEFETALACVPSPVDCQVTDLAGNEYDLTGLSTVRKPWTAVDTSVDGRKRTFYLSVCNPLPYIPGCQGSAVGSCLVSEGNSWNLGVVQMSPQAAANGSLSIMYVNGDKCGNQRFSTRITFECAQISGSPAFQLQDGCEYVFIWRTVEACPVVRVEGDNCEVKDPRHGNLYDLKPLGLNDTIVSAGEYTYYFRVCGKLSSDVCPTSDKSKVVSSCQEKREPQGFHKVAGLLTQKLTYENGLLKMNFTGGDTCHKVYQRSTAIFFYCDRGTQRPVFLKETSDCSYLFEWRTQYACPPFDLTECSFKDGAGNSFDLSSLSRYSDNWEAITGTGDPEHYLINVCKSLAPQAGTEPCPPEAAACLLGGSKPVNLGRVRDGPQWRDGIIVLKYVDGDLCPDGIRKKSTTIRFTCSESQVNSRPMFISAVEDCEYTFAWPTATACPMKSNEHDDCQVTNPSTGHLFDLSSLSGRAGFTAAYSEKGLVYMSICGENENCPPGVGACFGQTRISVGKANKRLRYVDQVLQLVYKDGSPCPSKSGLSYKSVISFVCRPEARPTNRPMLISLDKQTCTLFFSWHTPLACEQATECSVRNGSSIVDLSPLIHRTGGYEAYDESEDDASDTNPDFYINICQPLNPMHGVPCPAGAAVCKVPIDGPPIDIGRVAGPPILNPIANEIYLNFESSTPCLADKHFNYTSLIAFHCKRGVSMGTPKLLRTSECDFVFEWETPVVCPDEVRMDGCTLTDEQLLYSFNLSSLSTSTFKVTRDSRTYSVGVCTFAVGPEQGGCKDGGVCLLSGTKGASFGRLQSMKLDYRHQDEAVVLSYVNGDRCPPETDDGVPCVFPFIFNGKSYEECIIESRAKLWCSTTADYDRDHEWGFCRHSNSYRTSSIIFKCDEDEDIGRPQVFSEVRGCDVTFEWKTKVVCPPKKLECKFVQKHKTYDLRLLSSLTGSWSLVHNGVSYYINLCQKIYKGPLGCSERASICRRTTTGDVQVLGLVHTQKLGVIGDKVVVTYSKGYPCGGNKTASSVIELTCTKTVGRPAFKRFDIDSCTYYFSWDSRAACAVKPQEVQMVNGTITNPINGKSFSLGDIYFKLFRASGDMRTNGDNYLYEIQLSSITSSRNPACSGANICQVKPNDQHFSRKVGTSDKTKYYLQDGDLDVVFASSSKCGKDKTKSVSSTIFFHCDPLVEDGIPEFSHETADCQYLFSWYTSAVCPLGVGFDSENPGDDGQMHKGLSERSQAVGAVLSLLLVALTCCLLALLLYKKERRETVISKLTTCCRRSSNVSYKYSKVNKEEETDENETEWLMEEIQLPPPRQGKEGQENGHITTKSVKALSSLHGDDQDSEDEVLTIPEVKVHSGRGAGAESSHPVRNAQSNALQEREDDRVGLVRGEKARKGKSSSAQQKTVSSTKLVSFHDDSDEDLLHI

Row | Structure (SMILES) | GALC enzyme activity in culture supernatant (normal skin fibroblast; Day 5, normal cell) [nmol/h/µL] | total β-Hex enzyme activity in culture supernatant (normal skin fibroblast; Day 5, normal cell) [nmol/h/µL] | α-Fuc enzyme activity in culture supernatant (normal skin fibroblast; Day 5, normal cell) [nmol/h/µL] | α-Gal enzyme activity in culture supernatant (normal skin fibroblast; Day 5, normal cell) [nmol/h/µL] | α-Gluc enzyme activity in culture supernatant (normal skin fibroblast; Day 5, normal cell) [nmol/h/µL] | α-Iduro enzyme activity in culture supernatant (normal skin fibroblast; Day 5, normal cell) [nmol/h/µL] | α-Man enzyme activity in culture supernatant (normal skin fibroblast; Day 5, normal cell) [nmol/h/µL] | β-Gal enzyme activity in culture supernatant (normal skin fibroblast; Day 5, normal cell) [nmol/h/µL] | β-Gluc enzyme activity in culture supernatant (normal skin fibroblast; Day 5, normal cell) [nmol/h/µL] | β-Glucuro enzyme activity in culture supernatant (normal skin fibroblast; Day 5, normal cell) [nmol/h/µL] | β-Hex A enzyme activity in culture supernatant (normal skin fibroblast; Day 5, normal cell) [nmol/h/µL] | GALC enzyme activity in culture supernatant (normal skin fibroblast; Day 7, normal cell) [nmol/h/µL] | total β-Hex enzyme activity in culture supernatant (normal skin fibroblast; Day 7, normal cell) [nmol/h/µL] | α-Fuc enzyme activity in culture supernatant (normal skin fibroblast; Day 7, normal cell) [nmol/h/µL] | α-Gal enzyme activity in culture supernatant (normal skin fibroblast; Day 7, normal cell) [nmol/h/µL] | α-Gluc enzyme activity in culture supernatant (normal skin fibroblast; Day 7, normal cell) [nmol/h/µL] | α-Iduro enzyme activity in culture supernatant (normal skin fibroblast; Day 7, normal cell) [nmol/h/µL] | α-Man enzyme activity in culture supernatant (normal skin fibroblast; Day 7, normal cell) [nmol/h/µL] | β-Gal enzyme activity in culture supernatant (normal skin fibroblast; Day 7, normal cell) [nmol/h/µL] | excretion of group of lysosomal enzymes compared with no reagent added (normal skin fibroblast; normal skin fibroblast) | further results
1 | CO/C1=C\C(C)=C\[C@@H](C)[C@@H](O)[C@@H](C)C/C(C)=C/C=C/[C@H](OC)[C@@H]([C@@H](C)[C@@H](O)[C@H](C)[C@@]2(O)C[C@@H](O)[C@H](C)[C@@H](C(C)C)O2)OC1=O [Bafilo, bafilomycin A1] | 0.64 | 437.7 | 3.49 | 0 | 1.13 | 0.57 | 100.4 | 4.65 | 3.97 | 4.07 | 18.9 | 0.69 | 300.5 | 3.97 | 0.91 | 2.44 | 0.64 | 123.9 | 2.93 | excreted in larger amounts | β-Gluc enzyme activity in culture supernatant (normal skin fibroblast; Day 7, normal cell): 8.65 nmol/h/µL; β-Glucuro enzyme activity in culture supernatant (normal skin fibroblast; Day 7, normal cell): 8.03 nmol/h/µL; β-Hex A enzyme activity in culture supernatant (normal skin fibroblast; Day 7, normal cell): 22.5 nmol/h/µL
2 | CCN(CC)CCCC(C)Nc1ccnc2cc(Cl)ccc12 (centres unmarked) [CQ, chloroquine] |  |  |  |  |  |  |  |  |  |  |  |  |  |  |  |  |  |  |  | excreted in larger amounts | 
3 | Cl.N [NH4Cl, ammonium chloride] | 0.55 | 736.1 | 6.68 | 0 | 1.92 | 3.61 | 137.1 | 8.20 | 4.53 | 3.85 | 67.0 | 0.50 | 1239.2 | 5.70 | 0.84 | 4.51 | 13.90 | 200.0 | 11.65 | excreted in larger amounts | β-Gluc enzyme activity in culture supernatant (normal skin fibroblast; Day 7, normal cell): 5.39 nmol/h/µL; β-Glucuro enzyme activity in culture supernatant (normal skin fibroblast; Day 7, normal cell): 12.78 nmol/h/µL; β-Hex A enzyme activity in culture supernatant (normal skin fibroblast; Day 7, normal cell): 157.9 nmol/h/µL; kinds of lysosomal enzymes contained in culture supernatant (normal skin fibroblast; normal skin fibroblast, ammonium chloride 20 mM, seven days, FIG. 1): at least 10 kinds; excretion of group of lysosomal enzymes compared with no addition of ammonium chloride (COS-1 cell; COS-1 cell, Table 3): excreted in larger amounts; GALC enzyme activity in culture supernatant (COS-1 cell; Day 3, COS1, NH4Cl 20 mM): 0.41 nmol/h/µL; total β-Hex enzyme activity in culture supernatant (COS-1 cell; Day 3, COS1, NH4Cl 20 mM): 799.8 nmol/h/µL; α-Fuc enzyme activity in culture supernatant (COS-1 cell; Day 3, COS1, NH4Cl 20 mM): 24.2 nmol/h/µL; α-Gal enzyme activity in culture supernatant (COS-1 cell; Day 3, COS1, NH4Cl 20 mM): 10.60 nmol/h/µL; α-Gluc enzyme activity in culture supernatant (COS-1 cell; Day 3, COS1, NH4Cl 20 mM): 7.96 nmol/h/µL; α-Iduro enzyme activity in culture supernatant (COS-1 cell; Day 3, COS1, NH4Cl 20 mM): 13.60 nmol/h/µL; α-Man enzyme activity in culture supernatant (COS-1 cell; Day 3, COS1, NH4Cl 20 mM): 178.0 nmol/h/µL; β-Gal enzyme activity in culture supernatant (COS-1 cell; Day 3, COS1, NH4Cl 20 mM): 25.26 nmol/h/µL; β-Gluc enzyme activity in culture supernatant (COS-1 cell; Day 3, COS1, NH4Cl 20 mM): 6.64 nmol/h/µL; β-Glucuro enzyme activity in culture supernatant (COS-1 cell; Day 3, COS1, NH4Cl 20 mM): 21.37 nmol/h/µL; β-Hex A enzyme activity in culture supernatant (COS-1 cell; Day 3, COS1, NH4Cl 20 mM): 85.9 nmol/h/µL
4 | O=C[C@@H](O)[C@@H](O)[C@H](O)[C@H](O)COP(=O)(O)O [mannose 6-phosphate] |  |  |  |  |  |  |  |  |  |  |  |  |  |  |  |  |  |  |  |  | β-glucosidase in mannose 6-phosphate competitive inhibition test [1]: not to be affected; intracellular uptake of lysosomal enzymes ([1]; mannose 6-phosphate 0, 5 or 10 mM with lysosomal enzyme group sample): concentration-dependently and competitively inhibited
